Like-named read-outs stand apart in the source and are kept apart here.
How the values were obtained:
[1] = system: Human trabecular meshwork (TM) cells; assay: PGE2 production (RIA) in human trabecular meshwork cells; assay type: cell-based; conditions: 1 h at 37° C., BK 100 nM or 1 μM, fluprostenol 1 μM, non-peptide agonists 1 μM or 10 μM, FIG. 6
Description: The ability of BK agonists to stimulate prostaglandin E2 (PGE2) production was examined as follows. Human trabecular meshwork (TM) cells were seeded in culture plates and allowed to reach confluence. […] Fluprostenol was used as a positive control. After this time the assay was terminated by placing the assay plates on ice and by the addition of 100 μL of a cell-lysis reagent supplied with the PGE2 radioimmunoassay (RIA) kit (Amersham Pharmacia Biotech, Arlington Heights, Ill.). All reagents and standards supplied in the RIA kit were prepared and the RIA performed according to the manufacturer's instructions. Assay buffer, diluted prostaglandin E2 (PGE2) standard and supernatant from the cell-based experiment (diluted 1:100 v/v) were then pipetted into appropriate tubes as specified in the kit instructions. […]
After this incubation, all tubes were placed in an ice-bath and 1 ml cold precipitating reagent supplied in the kit was added to the tubes, the content mixed and incubated for 25 min at 4° C. […] The supernatants of all tubes were decanted as specified in the kit instructions and the RIA samples analyzed on a gamma-counter. The levels of PGE2 generated by the test agent were then quantified in comparison with the PGE2-standard curve. Dose-response data for the test agent were constructed and the potency and intrinsic activity determined as described above for other assays.

[2] = biological target: T1, B2-receptors in h-TM cells (Homo sapiens, UniProt P30411); assay: [Ca2+]i mobilization (FLIPR) in h-TM cells, agonist mode; assay type: cell-based; conditions: for Emax: HTM, read-out: Intrinsic Activity (Emax, % max relative to BK)
T1 construct: B2-receptor proteins in h-TM, h-CM and h-NPE cells; endogenous in cells; host or cells: human trabecular meshwork (h-TM), human ciliary muscle (h-CM) and human non-pigmented ciliary epithelial (h-NPE) cells
T1 sequence (P30411 1-391): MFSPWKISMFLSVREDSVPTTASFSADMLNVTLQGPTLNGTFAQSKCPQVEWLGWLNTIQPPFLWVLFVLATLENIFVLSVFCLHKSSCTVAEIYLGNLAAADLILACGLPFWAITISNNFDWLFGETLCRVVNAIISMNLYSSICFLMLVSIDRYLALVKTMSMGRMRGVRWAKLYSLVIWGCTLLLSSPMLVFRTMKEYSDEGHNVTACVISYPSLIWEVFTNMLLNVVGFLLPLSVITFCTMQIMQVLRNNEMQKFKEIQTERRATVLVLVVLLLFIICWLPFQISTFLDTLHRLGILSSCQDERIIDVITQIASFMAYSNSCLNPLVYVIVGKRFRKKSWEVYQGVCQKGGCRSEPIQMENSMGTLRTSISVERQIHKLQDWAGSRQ
Description: (§1) On the day of the experiment, one vial of FLIPR Calcium Assay Kit dye is re-suspended in 50 mL of a FLIPR buffer consisting of Hank's Balanced Salt Solution (HBSS), 20 mM HEPES, and 2.5 mM probenecid, pH 7.4. Cells are loaded with the calcium-sensitive dye by addition of an equal volume (50 μL) to each well of the 96-well plate and incubated with dye for 1 h at 23° C. After this time, the test compound plate and cell plate are placed in the FLIPR instrument. At the beginning of an experimental run, a signal test is performed to check the basal fluorescence signal from the dye-loaded cells and the uniformity of the signal across the plate. The basal fluorescence is adjusted between 8000-12000 counts by modifying the exposure time, the camera F-stop, or the laser power. Instrument settings for a typical assay are the following: laser power 0.3-0.6 W, camera F-stop F/2, and exposure time 0.4 sec.
(§2) Fluorescence data are collected in real-time at 1.0 sec intervals for the first 60 secs and at 6.0 sec intervals for an additional 120 secs. […] The data are then analyzed using an automated, iterative, sigmoidal curve-fitting computer program to obtain the potency and intrinsic activities of the test agents as previously described (Sharif et al. J. Pharmacol. Exp. Ther. 286: 1094-1102, 1998; Sharif et al. Invest. Ophthalmol. Vis. Sci. 39:2562-2571, 1998; Kelly et al. J. Pharmacol. Exp. Ther. 304: 238-245, 2003). The sources of materials and reagents for such assays can be found in the references cited above.

[3] = biological target: T2, B2-receptors in h-CM cells (Homo sapiens, UniProt P30411); assay: [Ca2+]i mobilization (FLIPR) in h-CM cells, agonist mode; assay type: cell-based; conditions: read-out: Intrinsic Activity (Emax, % max relative to BK)
T2 construct: B2-receptor proteins in h-TM, h-CM and h-NPE cells; endogenous in cells; host or cells: human trabecular meshwork (h-TM), human ciliary muscle (h-CM) and human non-pigmented ciliary epithelial (h-NPE) cells
T2 sequence (P30411 1-391): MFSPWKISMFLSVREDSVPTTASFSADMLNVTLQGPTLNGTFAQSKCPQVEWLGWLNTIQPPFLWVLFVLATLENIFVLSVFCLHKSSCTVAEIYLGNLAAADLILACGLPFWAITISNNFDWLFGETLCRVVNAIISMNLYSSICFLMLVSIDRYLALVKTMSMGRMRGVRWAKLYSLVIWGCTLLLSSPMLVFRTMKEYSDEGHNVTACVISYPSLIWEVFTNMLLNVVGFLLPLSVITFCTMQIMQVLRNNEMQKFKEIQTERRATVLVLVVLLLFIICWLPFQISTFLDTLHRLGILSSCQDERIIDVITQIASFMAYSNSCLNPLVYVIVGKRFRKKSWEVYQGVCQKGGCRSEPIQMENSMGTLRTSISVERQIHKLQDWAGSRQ
Description: as §1, §2

[4] = biological target: T3, B2-receptors in h-NPE cells (Homo sapiens, UniProt P30411); assay: [Ca2+]i mobilization (FLIPR) in h-NPE cells, agonist mode; assay type: cell-based; conditions: for Emax: read-out: Intrinsic Activity (Emax, % max relative to BK)
T3 construct: B2-receptor proteins in h-TM, h-CM and h-NPE cells; endogenous in cells; host or cells: human trabecular meshwork (h-TM), human ciliary muscle (h-CM) and human non-pigmented ciliary epithelial (h-NPE) cells
T3 sequence (P30411 1-391): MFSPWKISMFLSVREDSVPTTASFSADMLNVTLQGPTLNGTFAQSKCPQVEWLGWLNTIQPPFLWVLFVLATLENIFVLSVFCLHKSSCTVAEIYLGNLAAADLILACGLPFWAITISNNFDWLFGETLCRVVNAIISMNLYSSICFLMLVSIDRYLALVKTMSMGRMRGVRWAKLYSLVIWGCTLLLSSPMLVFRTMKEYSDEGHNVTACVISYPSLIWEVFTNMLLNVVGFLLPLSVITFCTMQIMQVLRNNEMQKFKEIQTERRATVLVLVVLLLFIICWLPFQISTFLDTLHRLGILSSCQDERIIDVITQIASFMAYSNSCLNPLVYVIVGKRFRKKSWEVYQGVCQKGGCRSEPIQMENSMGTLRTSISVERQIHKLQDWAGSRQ
Description: as §1, §2

[5] = biological target: T4, BK B2-Receptor in h-NPE cells (Homo sapiens, UniProt P30411); assay: Antagonism of FR-190997-induced [Ca2+]i mobilization in h-NPE cells; assay type: cell-based; conditions: FR-190997 as the agonist, read-out: Antagonist Potency (Ki)
T4 construct: B2-receptor proteins in h-TM, h-CM and h-NPE cells; endogenous in cells; host or cells: human trabecular meshwork (h-TM), human ciliary muscle (h-CM) and human non-pigmented ciliary epithelial (h-NPE) cells
T4 sequence (P30411 1-391): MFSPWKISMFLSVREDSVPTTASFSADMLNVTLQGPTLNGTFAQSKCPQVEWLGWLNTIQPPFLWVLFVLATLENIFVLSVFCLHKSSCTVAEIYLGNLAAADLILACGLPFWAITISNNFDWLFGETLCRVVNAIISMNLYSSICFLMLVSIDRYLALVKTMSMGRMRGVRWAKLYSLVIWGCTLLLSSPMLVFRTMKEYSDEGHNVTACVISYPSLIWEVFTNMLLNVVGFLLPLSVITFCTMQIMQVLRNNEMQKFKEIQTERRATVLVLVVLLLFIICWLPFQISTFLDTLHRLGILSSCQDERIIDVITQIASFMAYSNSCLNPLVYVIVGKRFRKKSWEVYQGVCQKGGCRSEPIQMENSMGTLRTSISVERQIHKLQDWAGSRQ
Description: as §1, §2

[6] = system: conscious ocular hypertensive cynomolgus monkey eyes; assay: IOP response in lasered (hypertensive) eyes of conscious cynomolgus monkeys, topical ocular; assay type: in vivo; conditions: for % Change in IOP: Table 10, 300 μg topical ocular
Description: Intraocular pressure (IOP) is determined with an Alcon Pneumatonometer (Alcon Laboratories, Inc., Fort Worth, Tex.) after light corneal anesthesia with 0.1% proparacaine. Right eyes are hypertensive as a result of laser trabeculoplasty. After a baseline IOP measurement, test compound is instilled in the right eyes only of 8-10 cynomolgus monkeys. Vehicle is instilled in the right eyes of 5-6 additional animals. Subsequent IOP measurements are taken at 1, 3, and 6 hours. IOP measurements are also taken on left eyes (normotensive and untreated) at each of these time points. The percent change in IOP from baseline is determined for each animal for every IOP measurement (Sharif et al. J. Ocular Pharmacol. Ther. 17: 305-317, 2001; May et al., J Pharmacol Exp Ther. 306: 301-309, 2003; Sharif et al. Invest. Ophthalmol. Vis. Res. 47: 4001-4010, 2006). Group mean and standard error of the mean (SEM) are calculated for each time point. […] In cases where the compound of invention has poor ocular bioavailability, the compound may need to be administered intracamerally or intravitreally in order to observe the IOP-lowering efficacy.
The IOP-lowering effect was slow to develop but significant IOP reduction was observed even 3 hours post-dosing with maximum ocular hypotension observed 16-48 hours post-dosing (Tables 6-8; FIGS. 3b-5).

For `O=C(O)CCC/C=C\C[C@@H]1[C@@H](/C=C/[C@@H](O)COc2cccc(C(F)(F)F)c2)[C@H](O)C[C@@H]1O` (racemic) [fluprostenol, reference compound], the “production of endogenous prostaglandins (PGE2)” value [1] was “stimulate the production of endogenous prostaglandins”.
`N=C(N)NCCC[C@H](N)C(=O)N1CCC[C@H]1C(=O)N1CCC[C@H]1C(=O)NCC(=O)N[C@@H](Cc1ccccc1)C(=O)N[C@@H](CO)C(=O)N1CCC[C@H]1C(=O)N[C@@H](Cc1ccccc1)C(=O)O` [Des-Arg^9-BK] showed an Emax ([2]; h-TM cells, mean ± SEM) of 112%, an Emax ([3]; h-CM cells, mean ± SEM) of 94% and an Emax ([4]; h-NPE cells, mean ± SEM) of 70%.
With `CNC(=O)c1ccc(/C=C/C(=O)NCC(=O)N(C)c2ccc(Cl)c(COc3cccc4ccc(C)nc34)c2Cl)cc1` [FR-165649, reference compound] the Ki [5] was 146 nM, the “modulation of IOP” value ([6]; 300 μg topically administered) was “failed to modulate IOP” and the “% Change in IOP” value ([6]; Dose 1/1 hr) was 1.0 ± 3.1%. For the same compound, the “% Change in IOP” value ([6]; Dose 1/3 hr) was 0.7 ± 3.5%, the “% Change in IOP” value ([6]; Dose 1/6 hr) was −6.2 ± 4.7% and the “% Change in IOP” value ([6]; Dose 1/24 hr) was −4.0 ± 3.2%.
With `N=C(N)NCCC[C@H](NC(=O)[C@H](Cc1ccccc1)NC(=O)[C@@H]1CCCN1C(=O)[C@H](CO)NC(=O)[C@H](Cc1ccccc1)NC(=O)CNC(=O)[C@@H]1C[C@@H](O)CN1C(=O)[C@@H]1CCCN1C(=O)[C@@H](N)CCCNC(=N)N)C(=O)O` [Hyp^3-BK, Arg-Pro-Hyp-Gly-Phe-Ser-Pro-Phe-Arg] the EC50 [2] was 0.9 ± 0.3 nM, the Emax [2] was 110% and the Emax [3] was 105%. For the same compound, the EC50 [4] was 6 ± 0.6 nM and the Emax [4] was 93%.
In the case of `N=C(N)NCCC[C@H](NC(=O)[C@H](Cc1ccccc1)NC(=O)[C@@H]1CCCN1C(=O)[C@H](CO)NC(=O)[C@H](Cc1ccccc1)NC(=O)CNC(=O)[C@@H]1CCCN1C(=O)[C@@H]1CCCN1C(=O)[C@H](CCCNC(=N)N)NC(=O)[C@@H](N)CCCCN)C(=O)O` [Lys-BK], the Emax ([2]; h-TM cells, mean ± SEM) is reported as 115%, the Emax ([3]; h-CM cells, mean ± SEM) is reported as 115% and the Emax ([4]; h-NPE cells, mean ± SEM) is reported as 90%.
For `CSCC[C@H](N)C(=O)N[C@@H](CCCCN)C(=O)N[C@@H](CCCNC(=N)N)C(=O)N1CCC[C@H]1C(=O)N1CCC[C@H]1C(=O)NCC(=O)N[C@@H](Cc1ccccc1)C(=O)N[C@@H](CO)C(=O)N1CCC[C@H]1C(=O)N[C@@H](Cc1ccccc1)C(=O)N[C@@H](CCCNC(=N)N)C(=O)O` [Met-Lys-BK], the Emax ([2]; h-TM cells, mean ± SEM) was 111%, the Emax ([3]; h-CM cells, mean ± SEM) was 110% and the Emax ([4]; h-NPE cells, mean ± SEM) was 77%.
